Measured values reported in patent US11034960B2, “PKLR inhibition in the treatment of NAFLD and HCC” (ScandiEdge Therapeutics AB, priority 2017, dated 2021).

Experiments:
PKLR = assay: qPCR of target gene expression in HepG2 cells after siRNA or expression plasmid transfection; type: cell-based, human; conditions: siRNA 50 nM, 72 hours, P<0.05
Protocol: HepG2 cell line was purchased from ATCC and selected for subsequent genetic modification. Cells were routinely cultured in humidified incubator with 5% CO2 at 37°. Cells were maintained by RPMI 1640 medium (R2405, Sigma-Aldrich) with 10% fetal bovine serum (FBS, F7524, Sigma-Aldrich).
For downregulation of target genes, PKLR, PNPLA3, and PCSK9, RNAi experiment was performed by silencer predesigned siRNA kit (Assay ID: 53 for PKLR, 121938 for PNPLA3 and 103966 for PCSK9, Thermo Fisher Scientific, USA). According to the manufacturer's instructions, HepG2 cells were treated by specific siRNA at 50 nM of final concentration using reverse transfection on the help of Lipofectamine RNAiMAX for 72 hours. Negative Control for transfection (4390843, Thermo Fisher Scientific, USA) was selected as standard for comparison from the same company. […]
Cells were treated for experiment when they were grown to 80% confluence. […] Expressions of target genes were validated by quantitative real-time PCR (Schmittgen and Livak, 2008). […] And the relative expression of each gene was calculated by 2-ΔΔCT method described before (Schmittgen and Livak, 2008). β-actin was selected as internal reference gene for normalization.
All results of measurement were presented/shown by mean±SD and One-way ANOVA was applied for comparisons in quantitative covariates. […]

HepG2 cells [1] = assay: Lipidomics measurement of triglycerides in HepG2 cells with PKLR downregulation; type: cell-based, human
Protocol: To better clarify the genetic impact of PKLR on lipid deposition, cells were treated by siRNA and then tested by mass spectrometer for lipidomics data, sequentially. To be specific, HepG2 cells were transfected by siRNA (Assay ID: 53 with target on PKLR, applied by aforementioned method) for 72 hours and then harvested for lipidomics measurement. Correspondingly, cells treated with non-targeting siRNA (4390843, Thermo Fisher Scientific, USA) were assigned as control.
For lipidomics measurement, cells were extracted using butanol/methanol (BUME) as previously described (Lofgren et al., 2012). Internal standards (either deuterated or containing heptadecanoyl (C17:0) fatty acids) were added during the extraction. Analysis of triacylglycerols and phosphatidylcholines were made using direct infusion on a QTRAP 5500 mass spectrometer (Sciex, Concord, Canada) equipped with a robotic nanoflow ion source, the TriVersa NanoMate (Advion BioSciences, Ithaca, N.J.). Detection of triacylglycerols was made using neutral loss scanning in positive mode (Murphy et al., 2007). Phosphatidylcholines were analyzed in positive mode using m/z 184 (phosphocholine) as fragment ion (Brugger et al., 1997).

K562 cells [2] = assay: RT-PCR gene expression in K562 cells after interference by C75 or PKLR-specific siRNA for 24 hours; type: cell-based, human; conditions: C75 at different concentrations (0, 40, 60 μM), FIG. 2A
Protocol: (§1) RNA was isolated for RT-PCR after interference for 24 hours; GAPDH was set as the internal reference. Cell counting was performed after interference for 72 hours. Data are presented as the means±standard errors of five independent experiments. Comparisons were performed by one-way ANOVA. Samples without any interference were assigned as controls. * represents a significant difference compared with the value in the control group (P<0.05).
(§2) For subsequent experiments, K562 and HepG2, human immortalized myelogenous leukemia and hepatic cell lines, respectively, were selected. Both cell lines were cultured in RPMI-1640 medium (R2405, Sigma-Aldrich) supplemented with 10% fetal bovine serum (FBS, F2442, Sigma Aldrich) and incubated in 5% CO2 humidity at 37° C. […]
(§3) Total RNA was isolated with TRIzol reagent (15596026, Thermo Fisher Scientific) after treatment with C75 or siRNA for 24 hours. The expression profiles of key genes (FASN, PKLR in K562/HepG2, and PNPLA3, PCSK9 only in HepG2 cells) in the co-expression network were measured and analyzed via quantitative real-time PCR with iTaq Universal SYBR Green One-Step Kit (1725151, Bio-Rad), using anchored oligo (dT) primer based on CFX96™ detection system (Bio-Rad). […] Variation in cell proliferation was detected with a Cell Counting Kit-8 (CCK-8, CK04, Dojindo) after interference by C75/siRNA for 72 hours. […]

HepG2 cells [3] = assay: RT-PCR gene expression in HepG2 cells after interference by C75 or PKLR-specific siRNA for 24 hours; type: cell-based, human; conditions: C75 (0, 40, 60 μM), FIG. 2C
Protocol: as §1
For subsequent experiments, K562 and HepG2, human immortalized myelogenous leukemia and hepatic cell lines, respectively, were selected. Both cell lines were cultured in RPMI-1640 medium (R2405, Sigma-Aldrich) supplemented with 10% fetal bovine serum (FBS, F2442, Sigma Aldrich) and incubated in 5% CO2 humidity at 37° C.
To confirm the speculated CN, chemical inhibitors and RNA interference (RNAi) assays were chosen to interfere with the immortalized cell lines (including K562 and HepG2) and the subsequent candidate gene expression and cell growth patterns were observed. More specifically, the experimental protocol was as follows: (1) C75 (C5490, Sigma-Aldrich), as a well-known fatty acid synthase [FAS] inhibitor, was added to cells at 80% confluence with a final concentration of 20, 40, 60, or 80 μM (taking cells without C75 interference as the control); (2) cells at 80% confluence were separately transfected with […] of Silencer® pre-designed PKLR-targeted siRNAs (clone ID: 53 (SEQ ID NO:2 and SEQ ID NO:3), 54 (SEQ ID NO:2 and SEQ ID NO:5), Life Technologies) at 15 nM by using Lipofectamine® RNAiMAX (13778075, Life Technologies). Cells incubated in medium with non-target negative control siRNA at 15 nM (4390843, Life Technologies) were assigned as the control.
Total RNA was isolated with TRIzol reagent (15596026, Thermo Fisher Scientific) after treatment with C75 or siRNA for 24 hours. The expression profiles of key genes (FASN, PKLR in K562/HepG2, and PNPLA3, PCSK9 only in HepG2 cells) in the co-expression network were measured and analyzed via quantitative real-time PCR with iTaq Universal SYBR Green One-Step Kit (1725151, Bio-Rad), using anchored oligo (dT) primer based on CFX96™ detection system (Bio-Rad). GAPDH was set as the internal control for normalization. The primer sequences were SEQ ID NO:9 (FASN forward), SEQ ID NO:10 (FASN reverse), SEQ ID NO:11 (PKLR forward), SEQ ID NO:12 (PKLR reverse), SEQ ID NO:13 (PNPLA3 forward), SEQ ID NO:14 (PNPLA3 reverse), SEQ ID NO:15 (PCSK9 forward), SEQ ID NO:16 (PCSK9 reverse), SEQ ID NO:17 (GAPDH forward) and SEQ ID NO:18 (GAPDH reverse). Variation in cell proliferation was detected with a Cell Counting Kit-8 (CCK-8, CK04, Dojindo) after interference by C75/siRNA for 72 hours. […]

HepG2 cells [4] = assay: Cell growth of HepG2 cells (Cell Counting Kit-8) after interference for 72 hours; type: cell-based, human; conditions: different concentrations of C75 (0, 20, 40, 60, 80 μM), FIG. 2D
Protocol: as §1, §2, §3

[5] = test system: primary human hepatocytes; assay: mRNA expression in primary human hepatocytes treated with C75 (TaqMan real-time PCR); type: cell-based; conditions: 40 μg/ml C75, 4, 6, 8 or 24 hours, FIG. 3F
Protocol: Human primary hepatocytes were purchased from Biopredic International. Twenty-four hours after arrival (48 hours after isolation), human hepatocytes were treated with 40 μg/ml of C75 or dimethyl sulfoxide (DMSO) for 4, 6, 8 or 24 hours.
Total RNA was isolated from human hepatocytes and snap-frozen mouse liver with an RNeasy Mini Kit (Qiagen). cDNA was synthesized with a high-capacity cDNA Reverse Transcription Kit (Applied Biosystems) and random primers. The mRNA expression levels of genes of interest were analyzed via TaqMan real-time PCR in a ViiATM7 System (Applied Biosystems). The TaqMan Gene Expression assays used were Mm01263610_m1 (for mouse Pcsk9), Mm00662319_m1 (mouse Fasn), Mm00443090_m1 (mouse Pklr), Mm00504420_m1 (mouse Pnpla3), Mm01282499_m1 (mouse Hmgcr), Hs00545399_m1 (human PCSK9), Hs01005622_m1 (human FASN), Hs00176075_m1 (human PKLR), Hs00228747_m1 (human PNPLA3), and Hs00168352_m1 (human HMGCR) (all from Applied Biosystems). Hprt (mouse Mm03024075_m1) and GADPH (human Hs02758991_g1) (Applied Biosystems) were used as internal controls.

K562 cells [6] = assay: Cell growth of K562 cells (Cell Counting Kit-8) after interference for 72 hours; type: cell-based, human; conditions: C75 (0, 20, 40, 60, 80 μM), FIG. 2B
Protocol: as §1, §2, §3

For “siRNA 53: PKLR-targeted Silencer pre-designed siRNA; sense sequence SEQ ID NO:5, antisense sequence SEQ ID NO:6 (sense GGAGAUGAUCAAGGCCGGGTT; antisense CCCGGCCUUGAUCAUCUCCTT; chemistry not given here; listed as Homo sapiens)”, the “inhibitory rate of PKLR expression (down-regulation vs negative control)” value (PKLR) was 96%, the “decrease of total triglyceride compared to negative control” value (HepG2 cells [1]; after adjusting based on the phosphatidylcholines levels) was “about 15%” and the triglyceride level (HepG2 cells [1]; siRNA 72 hours vs non-targeting negative control, P<0.05) was “significant decrease”. For the same molecule, the “total triglyceride adjusted based on the phosphatidylcholines levels” value (HepG2 cells [1]; siRNA 72 hours, negative control 555.0±51.2) was 471.7±45.5.
In the case of `C=C1C(=O)OC(CCCCCCCC)C1C(=O)O` (stereo not shown) [C75], the FASN expression level (K562 cells [2]) is reported as “significantly decreased”, the PKLR expression level (K562 cells [2]) is reported as “significantly decreased” and the FASN expression level (HepG2 cells [3]) is reported as “significantly decreased”. For the same molecule, the PCSK9 expression level (HepG2 cells [3]) was “significantly decreased”, the PKLR expression level (HepG2 cells [3]) was “significantly decreased” and the PNPLA3 expression level (HepG2 cells [3]) was “significantly decreased”. For the same molecule, the cell growth (HepG2 cells [4]) was “significantly decreased”, the “expression of FASN in relation to expression of PKLR, PCSK9, PNPLA3” value [5] was “interconnected” and the cell growth (K562 cells [6]) was “significant decrease”.
